Experimental findings from publication PMC7582476, “Discovery of Novel Indoleamine 2,3-Dioxygenase 1 (IDO1) and Histone Deacetylase 1 (HDAC1) Dual Inhibitors Derived from the Natural Product Saprorthoquinone” (Molecules, 2020) are described below.

Where two headings read alike, the source gives them in different places. Bounds are passed on as bounds.

Assay [1] deals with T1, IDO1 (Homo sapiens, UniProt P14902).
T1 construct: No. 20160706
As to the kind of experiment: IDO1 enzymatic assay. In kind it is biochemical. The conditions noted are these: for IC50: mean ± SD of at least two independent assays. How it is done: (1) Prepare 100× compound of the final desired highest inhibitor concentration in reaction by 100% DMSO. For example, if compounds test at 10 μM, then prepare 1 mM of compound solution in this step. Then dilute compound with DMSO in 3-fold mode to obtain different concentrations. Mark as source plate. (2) Add 100 μL of 100% DMSO to column 1 and column 12 for background control and no compound high control respectively.
Transfer 2 μL of each well from the 96-well source plate to a 96-well assay plate.
• (3) Enzyme Reaction • Prepare 2× enzyme solution. Add IDO-1 in assay buffer. • Prepare 2× substrate solution. Add L-tryptophan, ascorbate, methylene blue, catalase in the assay buffer. • Assay plate already contains 2 μL of compound in 100% DMSO. • Transfer 2× enzyme solution to the assay plate. Add 100 μL of 2× enzyme solution to each well of the 96-well assay plate. • Incubate at room temperature for 10 min. • Transfer […] to each well of the 96-well assay plate. • Read OD321 kinetically by Spectramax (Molecular Devices, LLC, San Jose, CA, USA). • (4) Curve Fitting • Copy data from Spectramax program. Percent inhibition = (max-conversion)/(max − min) × 100. “max” stands for high control; “min” stands for low control. • Fit the data in XL-Fit to obtain IC50 values. Equation used is: Y = Bottom + (Top − Bottom)/(1 + 10^((LogIC50 − X) × Hill Slope)

The subject of assay [2] is A549 cell line. As to the kind of experiment: Anti-proliferation assay in A549 cell line (CellTiter-Glo). In kind it is cell-based. The conditions noted are these: Homo sapiens; A549 cells, 48 h, CTG assay. How it is done:
Cell viability was measured by the CellTiter-Glo Luminescent (CTG) assay. A549 cells (ATCC, Cat. No.CCL-185) were seeded (2000 cells/well) in 96-well plates and cells were left to incubate at 37 °C for 24 h. After 24 h, prepare compounds with 5-fold dilution in DMSO to the compound plate (200-fold of the final concentration) and transfer 5 μL from the compound plate to 95 μL intermediate medium in the intermediate plate (10-fold of the final concentration). Then transfer 10 μL from the intermediate plate to the cell plates. The final DMSO is 0.5%. After continuing to incubate for 48 h, add 50 μL CTG reagent to each well and read luminescence according to CTG product manual.

Assay [3] has as its target T2, HDAC1 (Homo sapiens, UniProt Q13547).
T2 construct: purchased BPS Bioscience Inc. 50051
As to the kind of experiment: HDAC enzymatic assay. The conditions noted are these: mean ± SD of at least two independent assays. In kind it is biochemical. As to the method: • (1) Prepare 1× assay buffer (modified Tris Buffer). • (2) Compound serial dilution: Transfer compounds to assay plate by Echo in 100% DMSO. The final fraction of DMSO is 1%. • (3) Prepare enzyme solution in 1× assay buffer. • (4) Add trypsin and Ac-peptide substrate in 1× assay buffer to make the substrate solution. • (5) Transfer 15 μL of enzyme solution to assay plate or for low control transfer 15 μL of 1× assay buffer. • (6) Incubate at room temperature for 15 min. • (7) Add 10 μL of substrate solution to each well to start reaction. • (8) Incubate at room temperature for 60 min. • (9) Read the plate on Synergy MX with excitation at 355 nm and emission at 460 nm. • (10) Curve fitting: Fit the data in Excel to obtain inhibition values using Equation (1).
Inh% = (Max − Signal)/(Max − Min) × 100(1)
Fit the data in XL-Fit to obtain IC50 values using Equation (2); Y = Bottom + (Top − Bottom)/(1 + 10^((LogIC50 − X) × Hill Slope))(2)
Y is %inhibition and X is compound concentration.

Setting [4] is: 10 μM, Table 1 natural products, read-out: IDO1 Inhibition @ 10 μM (%).
Setting [5] is: 10 μM, Tables 2 and 3, read-out: IDO1 % Inhibition at 10 μM (converted).
Setting [6] is: 10 μM, Table 1 natural products.

T1 sequence (P14902 whole entry): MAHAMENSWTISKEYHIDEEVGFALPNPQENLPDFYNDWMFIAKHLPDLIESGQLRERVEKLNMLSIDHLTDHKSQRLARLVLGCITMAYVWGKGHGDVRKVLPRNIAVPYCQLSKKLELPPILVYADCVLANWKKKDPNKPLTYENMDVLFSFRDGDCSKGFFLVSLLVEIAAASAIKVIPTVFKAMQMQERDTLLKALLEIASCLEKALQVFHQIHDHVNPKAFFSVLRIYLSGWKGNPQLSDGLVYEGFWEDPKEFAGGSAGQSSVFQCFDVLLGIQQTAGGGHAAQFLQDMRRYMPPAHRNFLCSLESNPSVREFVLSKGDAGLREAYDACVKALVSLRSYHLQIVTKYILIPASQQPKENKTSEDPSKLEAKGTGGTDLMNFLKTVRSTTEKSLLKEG
T2 sequence (Q13547 whole entry): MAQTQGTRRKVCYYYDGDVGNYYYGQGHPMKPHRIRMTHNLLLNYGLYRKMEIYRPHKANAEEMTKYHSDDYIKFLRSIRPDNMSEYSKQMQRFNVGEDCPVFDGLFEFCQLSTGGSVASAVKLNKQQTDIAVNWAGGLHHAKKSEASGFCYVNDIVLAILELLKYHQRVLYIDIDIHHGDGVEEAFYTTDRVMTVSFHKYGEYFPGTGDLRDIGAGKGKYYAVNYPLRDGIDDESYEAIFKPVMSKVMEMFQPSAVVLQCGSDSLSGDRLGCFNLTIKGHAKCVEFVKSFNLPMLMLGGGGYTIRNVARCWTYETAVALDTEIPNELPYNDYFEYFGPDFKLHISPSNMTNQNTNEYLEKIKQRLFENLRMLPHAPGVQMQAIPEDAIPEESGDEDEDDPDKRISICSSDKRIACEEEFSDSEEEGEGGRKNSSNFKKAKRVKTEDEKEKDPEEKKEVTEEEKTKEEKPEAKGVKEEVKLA

In the case of `CC(C)=CCCc1c(C)ccc2c1C(=O)C(=O)C(C(C)C)=C2` [Compound 1, saprorthoquinone], the inhibition at 10 µM in assay [1] (setting [4]) and in assay [1] (setting [5]) was 85% throughout. Further, the IC50 in assay [1] amounted to 1.76 ± 0.27 µM; in assay [2], 9.97 µM.

Regarding `Cc1coc2c1C(=O)C(=O)c1c-2ccc2c(C)cccc12` [Compound 4], the inhibition at 10 µM in assay [1] (setting [4]) amounted to 65%.

On to `CC(C)C1=Cc2ccc3c(c2C(=O)C1=O)CCCC3(C)C` [Compound 5], for which the inhibition at 10 µM in assay [1] (read-out: IDO1 Inhibition @ 10 μM (%)) amounted to 81%.

`CC1COC2=C1C(=O)C(=O)c1c2ccc2c1CCCC2(C)C` (centres unmarked) [Compound 6]: the inhibition at 10 µM in assay [1] (setting [4]) was found to be 66%.

For the molecule `Cc1ccc2c(c1CCC(=O)C(C)C)C(=O)C(=O)C(C(C)C)=C2` [Compound 7], in assay [1] (setting [4]), the inhibition at 10 µM was 86%.

Turning to `Cc1ccc2c(c1C(=O)CCC(C)(C)O)C(=O)C(=O)C(C(C)C)=C2` [Compound 8], the inhibition at 10 µM in assay [1] (setting [4]) amounted to 73%.

As to `COC(=O)[C@@]1(C)CCCc2c1ccc1c2C(=O)C(=O)C2=C1OCC2C` (some centres unmarked) [Compound 9], the inhibition at 10 µM in assay [1] (setting [4]) came out at 61%.

Turning to `CC(C)C1=C(O)C(=O)C2=C(CC[C@H]3C(C)(C)CCC[C@]23C)C1=O` [Compound 10], the “IDO1 Inhibition @ 10 μM (%)” value in assay [1] (setting [6]) was “almost lost their activity”. Besides, the inhibition at 10 µM in assay [1] (setting [4]) came out at 2%.

For `Cc1ccc2c(c1CCCC(C)(C)O)C(=O)C(O)=C(C(C)C)C2=O` [Compound 11], the “IDO1 Inhibition @ 10 μM (%)” value in assay [1] (setting [6]) is recorded as “almost lost their activity”. In addition, the inhibition at 10 µM in assay [1] (setting [4]) was 2%.

`Cc1cccc2c3c(ccc12)C(=O)C(C(C)C)=C(O)C3=O` [Compound 12]: in assay [1] (setting [4]), the inhibition at 10 µM came to 13%.

Regarding `CC(C)C1=CC(=O)C([C@@]2(C)CCCC(C)(C)[C@@H]2CC=O)=CC1=O` [Compound 13], in assay [1] (setting [4]), the inhibition at 10 µM turned out to be 6%.

`CC(C)=CCCc1c(C)ccc2c1C(=O)C(O)=C(C(C)C)C2=O` [Compound 14]: the inhibition at 10 µM in assay [1] (setting [4]) was 30%.

Consider `CC(C)C1=C(O)C(=O)C23OC2(C(=O)CC2C(C)(C)CCCC23C)C1=O` (centres unmarked) [Compound 15], for which, in assay [1] (setting [6]), the “IDO1 Inhibition @ 10 μM (%)” value is recorded as “almost lost their activity”. Moreover, the inhibition at 10 µM in assay [1] (setting [4]) turned out to be 3%.

For the molecule `Cc1ccc2c(c1/C=C\C(=O)C(C)(C)O)C(=O)C(O)=C(C(C)C)C2=O` [Compound 16], the “IDO1 Inhibition @ 10 μM (%)” value in assay [1] (setting [6]) is “almost lost their activity”. Moreover, the inhibition at 10 µM in assay [1] (setting [4]) turned out to be 3%.

Turning to `Cc1ccc2c(c1CCC(O)C(C)(C)O)C(=O)C(=O)C(C(C)C)=C2` (centres unmarked) [Compound 17, 8-(3,4-Dihydroxy-4-methylpentyl)-3-isopropyl-7-methylnaphthalene-1,2-dione], the inhibition at 10 µM in assay [1] (setting [5]) was 90%. Besides, the IC50 in assay [1] amounted to 0.74 ± 0.15 µM; in assay [2], 12.8 µM.

`Cc1ccc2c(c1CCC(=O)O)C(=O)C(=O)C(C(C)C)=C2` [Compound 18, 3-(6-Isopropyl-2-methyl-7,8-dioxo-7,8-dihydronaphthalen-1-yl)propanoic acid]: in assay [1] (setting [5]), the inhibition at 10 µM was 86%. In addition, the figures for the IC50 in assay [1] and in assay [2] were 0.99 ± 0.24 µM and above 20 µM, respectively.

In the case of `Cc1ccc2c(c1CCC(N)=O)C(=O)C(=O)C(C(C)C)=C2` [Compound 19, 3-(6-Isopropyl-2-methyl-7,8-dioxo-7,8-dihydro-naphthalen-1-yl)propanamide], the inhibition at 10 µM in assay [1] (setting [5]) was 78%. For the same molecule, the IC50 was determined as 0.51 ± 0.04 µM in assay [1] and 14.5 µM in assay [2].

As to `Cc1ccc2c(c1CCC(=O)Nc1cccc(F)c1)C(=O)C(=O)C(C(C)C)=C2` [Compound 21a, N-(3-Fluorophenyl)-3-(6-isopropyl-2-methyl-7,8-dioxo-7,8-dihydronaphthalen-1-yl)propanamide], the inhibition at 10 µM in assay [1] (setting [5]) was 80%. Also, the results for the half-maximal inhibitory concentration (IC50) in assay [1] and in assay [2] were 1.33 ± 0.01 µM and 13.1 µM, respectively.

As for `Cc1ccc2c(c1CCC(=O)Nc1ccc(F)cc1)C(=O)C(=O)C(C(C)C)=C2` [Compound 21b, N-(4-Fluorophenyl)-3-(6-isopropyl-2-methyl-7,8-dioxo-7,8-dihydronaphthalen-1-yl)propanamide], the inhibition at 10 µM in assay [1] (setting [5]) is 64%. The same molecule displayed an IC50 in assay [2] of 14.8 µM.

Consider `Cc1ccc2c(c1CCC(=O)Nc1ccc(C(F)(F)F)cc1)C(=O)C(=O)C(C(C)C)=C2` [Compound 21c, 3-(6-Isopropyl-2-methyl-7,8-dioxo-7,8-dihydronaphthalen-1-yl)-N-(4-(trifluoromethyl)phenyl)propanamide], for which the inhibition at 10 µM in assay [1] (setting [5]) was 64%. In assay [2], this molecule had a half-inhibitory concentration (IC50) of 7.49 µM.

As to `Cc1ccc2c(c1CCC(=O)Nc1ccc(F)c(Br)c1)C(=O)C(=O)C(C(C)C)=C2` [Compound 21d, N-(3-Bromo-4-fluorophenyl)-3-(6-isopropyl-2-methyl-7,8-dioxo-7,8-dihydronaphthalen-1-yl)propanamide], in assay [1] (setting [5]), the inhibition at 10 µM was 65%. The IC50 in assay [2] came out at 9.31 µM.

For `COc1ccc(NC(=O)CCc2c(C)ccc3c2C(=O)C(=O)C(C(C)C)=C3)cc1` [Compound 21e, 3-(6-Isopropyl-2-methyl-7,8-dioxo-7,8-dihydronaphthalen-1-yl)-N-(4-methoxyphenyl)propanamide], in assay [1] (setting [5]), the inhibition at 10 µM was 66%. Further, in assay [2], the 50% inhibitory concentration (IC50) is above 20 µM.

Consider `Cc1ccc2c(c1CCC(=O)NCc1c[nH]c3ccccc13)C(=O)C(=O)C(C(C)C)=C2` [Compound 21f, N-((1H-indol-3-yl)methyl)-3-(6-isopropyl-2-methyl-7,8-dioxo-7,8-dihydronaphthalen-1-yl)propanamide], for which the inhibition at 10 µM in assay [1] (setting [5]) is 79%. The concentration for half-maximal inhibition (IC50) in assay [2] was above 20 µM.

On to `Cc1ccc2c(c1CCC(=O)NCc1cn(C)c3ccccc13)C(=O)C(=O)C(C(C)C)=C2` [Compound 21g, 3-(6-Isopropyl-2-methyl-7,8-dioxo-7,8-dihydronaphthalen-1-yl)-N-((1-methyl-1H-indol-3-yl)methyl)-propanamide], for which the inhibition at 10 µM in assay [1] (setting [5]) was 74%. The molecule also gave a concentration for half-maximal inhibition (IC50) in assay [2] of 12.2 µM.

For `Cc1ccc2c(c1CCCOS(C)(=O)=O)C(=O)C(=O)C(C(C)C)=C2` [Compound 24a, 3-(6-Isopropyl-2-methyl-7,8-dioxo-7,8-dihydronaphthalen-1-yl)propyl methanesulfonate], the inhibition at 10 µM in assay [1] (setting [5]) was 91%. In addition, the IC50 in assay [1] is 0.72 ± 0.13 µM; in assay [2], 11.8 µM.

In the case of `CCS(=O)(=O)OCCCc1c(C)ccc2c1C(=O)C(=O)C(C(C)C)=C2` [Compound 24b, 3-(6-Isopropyl-2-methyl-7,8-dioxo-7,8-dihydronaphthalen-1-yl)propyl ethanesulfonate], the inhibition at 10 µM in assay [1] (setting [5]) is 87%. In assay [2], this molecule yielded a 50% inhibitory concentration (IC50) of 15.5 µM.

In the case of `Cc1ccc2c(c1CCCOS(N)(=O)=O)C(=O)C(=O)C(C(C)C)=C2` [Compound 24c, 3-(6-Isopropyl-2-methyl-7,8-dioxo-7,8-dihydronaphthalen-1-yl)propyl sulfamate], the inhibition at 10 µM in assay [1] (setting [5]) is 86%. In assay [2], this molecule registered an IC50 of 11.1 µM.

As to `Cc1ccc2c(c1CCC(=O)Nc1ccccc1N)C(=O)C(=O)C(C(C)C)=C2` [Compound 27a, N-(2-Aminophenyl)-3-(6-isopropyl-2-methyl-7,8-dioxo-7,8-dihydronaphthalen-1-yl)propanamide], the inhibition at 10 µM in assay [1] (setting [5]) is 88%. The half-maximal inhibitory concentration (IC50) in assay [1] was 0.72 ± 0.1 µM; in assay [3], above 100 µM; in assay [2], 17.8 µM.

Turning to `Cc1ccc2c(c1CCC(=O)Nc1cc(F)ccc1N)C(=O)C(=O)C(C(C)C)=C2` [Compound 27b, N-(2-Amino-5-fluorophenyl)-3-(6-isopropyl-2-methyl-7,8-dioxo-7,8-dihydronaphthalen-1-yl)propanamide], the inhibition at 10 µM in assay [1] (setting [5]) is 84%. The half-maximal inhibitory concentration (IC50) in assay [3] is above 100 µM; in assay [2], 9.51 µM.
